# Tests used:
# [1] = test system: folate receptor negative A549 tumor xenografts; test: Whole body imaging and biodistribution, folate receptor-negative A549 tumor xenografts; type: in vivo, mice; conditions: for specificity for folate receptor (conclusion): FR-negative A549 xenografts
# Description: Seven-week-old female nu/nu mice were inoculated subcutaneously with A549 cells (1.0×10^6/mouse in RPM11640 medium) on the shoulder. Growth of the tumors was measured in perpendicular directions every 2 days using a caliper (body weights were monitored on the same schedule), and the volumes of the tumors were calculated as 0.5×L×W^2 (L=longest axis and W=axis perpendicular to L in millimeters). Once tumors reached between 400 and 500 mm3 in volume, animals (6 mice/group) were intravenously injected with 10 nmol of OTL-0038 in phosphate buffered saline (100 μL). After 2.5 h, animals were sacrificed by CO2 asphyxiation. Whole body imaging (intact tumor) experiments were then performed using a Caliper IVIS Lumina II Imaging Station with Living Image 4.0 software (PerkinElmer Inc, MA). Settings for imaging:—lamp level: medium; excitation: 745 nm; emission: ICG (indocyanine green); epi illumination; binning: 4 (M), FOV=12.5; f-stop=2; acquisition time=1 s.
# Following whole body imaging, animals were dissected and selected tissues (heart, lung, liver, spleen, kidneys, stomach, small intestine, large intestine, muscle, skin, tumor) were analyzed for fluorescence activity using IVIS imager as before. Settings for imaging:—lamp level: medium; excitation: 745 nm; emission: ICG; epi illumination; binning: 4 (M), FOV=12.5; f-stop=2; acquisition time=1 s.
# (§1) Seven-week-old female nu/nu mice were inoculated subcutaneously with KB (1.0×10^6/mouse in RPM11640 medium), IGROV (5.0×10^6/mouse in 50% high concentrated matrigel+RPM11640 medium), SKOV3 (5.0×10^6/mouse in RPM11640 medium), OVCAR3 (5.0×10^6/mouse in RPM11640 medium), MDA-MB231 (1.0×10^6/mouse in RPM11640 medium), M109 (1.0×10^6/mouse in RPM11640 medium) or A549 cells (2.0×10^6/mouse in RPM11640 medium) on the shoulder. Growth of the tumors was measured in perpendicular directions every 2 days using a caliper (body weights were monitored on the same schedule), and the volumes of the tumors were calculated as 0.5×L×W^2 (L=longest axis and W=axis perpendicular to L in millimeters). Once tumors reached approximately 300-400 mm3 in volume, animals (3-5 mice/group) were intravenously injected with the compound of interest in PBS (for dose escalation in KB tumor model: 0.3-90 nmol, for time dependent in KB tumor model: 2 or 10 nmol, and for general whole body imaging and biodistribution for all tumor models: 2 nmol, in 100 μL in PBS per mouse). For whole body imaging and biodistribution studies, animals were euthanized 2 hours after administration of the compound of interest by CO2 asphyxiation. For time dependent studies, animals were imaged under anesthesia using isoflurane. Whole body imaging (intact tumor) experiments was then performed using a Caliper IVIS Lumina II Imaging Station with Living Image 4.0 software (PerkinElmer Inc, MA).
# (§2) Following whole body imaging, animals were dissected and selected tissues (heart, lung, liver, spleen, kidneys, stomach, small intestine, large intestine, muscle, skin, and tumor) were analyzed for fluorescence activity using IVIS imager using same settings as in whole body imaging.
# [2] = Toxicity in healthy nude mice; type: in vivo
# Description: Seven-week-old healthy female nude mice (5 mice/group) were administered with 1 μmol of freshly prepared OTL-0038 or OTL-0039 dissolved in 100 μL of phosphate buffered saline via tail vein injection on day zero. Body weights and clinical observations were monitored prior to dosing and daily thereafter from day zero to 7. Any animals with a body weight loss of 20% or more over two consecutive days would be euthanized, but this was not necessary. The animals were euthanized by CO2 asphyxiation on day 7 and selected tissues (brain, heart, lung, liver, spleen, kidney, stomach, small intestine, large intestine, muscle, skin) were collected into vials containing 4% formalin. Formalin fixed tissues were sectioned into 10 μm thick sections and mounted onto Superfrost Plus™ slides (Fisher Scientific, Pittsburgh Pa.). After staining the slides with H&E, immunohistochemistry (IHC) analysis of the tissues was conducted to determine to the toxicity of OTL-0038 and OTL-0039.
# [3] = Chemical and optical properties of NIR dyes (Table 1); type: physicochemical
# [4] = test system: FR-positive IGROV orthotopic ovary tumor; test: Imaging and biodistribution, IGROV ovarian orthotopic model; type: in vivo, mice; conditions: 2 nmol, 2 h
# Description: (§3) Ovarian cancer was developed through surgical implantation of ovarian cancer cell lines near the ovarian bursa of the mouse. Seven-week-old female athymic nude mice were given 1-5% isoflurane for anesthesia and subcutaneous injection of 5 mg/kg meloxicam preoperatively for analgesia. The mice were placed dorsal side up and washed above the right ovary (just lateral to the epaxial muscles and ˜1.15 cm caudal to the rib cage) with a chlorhexidine scrub to ensure a sterile area for incision. After an insertion was made using scalpel through the skin, the peritoneal lining was lifted to make a small incision using a scissor and widened using a forceps. The ovarian fat pad was carefully lifted out and placed on a wetted gauze pad adjacent to the incision. Ovarian cancer cells (50,000 cells in 5 μL) were injected between the bursa and the ovary using a 30 gage needle. After placing the ovarian fat pad back into the body cavity, the body wall was closed using 3-0 or 4-0 vicryl and the skin was closed using staples.
# as §2
# [5] = test system: FR-positive SKOV3 tumor xenografts; test: Imaging and biodistribution, SKOV3 ovarian xenograft; type: in vivo, mice; conditions: 2 nmol, 2 h
# Description: as §1, §2
# [6] = test system: FR-positive SKOV3 orthotopic tumor; test: Imaging and biodistribution, SKOV3 ovarian orthotopic model; type: in vivo, mice; conditions: 2 nmol, 2 h
# Description: as §3, §2
# [7] = test system: FR-positive MDA-MB 231 orthotopic tumors; test: Imaging and biodistribution, MDA-MB 231 orthotopic model; type: in vivo, mice; conditions: 2 nmol, 2 h
# Description: Breast cancer was developed by implanting breast cancer cells in the […] fat pad of the mouse.
# as §2
# [8] = test system: breast cancer cells metastasized to lung; test: Imaging, MDA-MB 231 metastatic model; type: in vivo, mice; conditions: 2 nmol, 2 h
# Description: (§4) One million (1×106) of either L1210A or MDA-MB231 cancer cells per mouse (cancer cells/mouse) were administered via tail vein injection into the mice. Tumor growth was monitored every other day using a Caliper IVIS Lumina II Imaging Station with Living Image 4.0 software (PerkinElmer Inc.).
# [9] = test system: FR-positive L1210A tumors; test: Imaging and biodistribution, L1210A metastatic model (OTL38); type: in vivo, mice; conditions: 2 nmol, 2 h
# Description: as §4, §2
# FR-positive M109 tumors = test: Imaging and biodistribution, M109 metastatic model; type: in vivo, mice; conditions: 2 nmol, 2 h
# Description: as §1, with “For whole body imaging and biodistribution studies, animals were euthanized 2 hours after administration of the compound of interest by CO2 asphyxiation. For time dependent studies, animals were imaged under anesthesia using isoflurane. Whole body imaging (intact tumor) experiments was then performed using a Caliper IVIS Lumina II Imaging Station with Living Image 4.0 software (PerkinElmer Inc, MA).” left out
# as §2
smiles,measurement,setting,value
"CC1(C)C(/C=C/C2=C(Oc3ccc(C[C@H](NC(=O)c4ccc(NCc5cnc6nc(N)[nH]c(=O)c6n5)cc4)C(=O)[O-])cc3)C(=C/C=C3\N(CCCCS(=O)(=O)[O-])c4ccc(S(=O)(=O)[O-])cc4C3(C)C)/CCC2)=[N+](CCCCS(=O)(=O)[O-])c2ccc(S(=O)(=O)[O-])cc21.[H+].[H+].[H+].[H+] [OTL-0038, Pte-Tyr-S0456]",tissue biodistribution,"[1]; 2 nmol i.v., 2 h",no fluorescence was observed in FR-negative tumors
same,whole body imaging: accumulation,"[1]; 2 nmol i.v., 2 h",did not accumulated in the FR-negative tumors
same,whole body imaging: accumulation,"[1]; 10 nmol i.v., 2.5 h",did not accumulated in the folate receptor negative tumors
same,specificity for folate receptor (conclusion),[1],highly specific for folate receptor
same,specificity for folate receptor (conclusion),[1]; listed as OTL38,highly specific for FR
same,toxicity (conclusion),[2]; 1 μmol (1000× clinical dose),not toxic to animals
same,skin colour immediately after the injection,[2]; 1 μmol tail vein,became green
same,activity and behaviour,"[2]; 1 μmol tail vein, day 0 to 7",behaved normally throughout the study
same,body weights over the course of the study,"[2]; 1 μmol tail vein, day 0 to 7",remained stable
same,lesions in tissues (IHC data),"[2]; 1 μmol tail vein, day 7",no lesions identified in any tissues
same,E,[3],272000 M⁻¹ cm⁻¹
same,Q (%),[3],15.6%
same,Stokes Shift (nm),[3],20 nm
same,λem (nm),[3],776 nm
same,λex (nm),[3],796 nm
same,accumulation (tissue biodistribution),[4],accumulated mainly in the FR-positive IGROV orthotopic ovary tumor
same,tumor-to-normal tissue ratios,[4],excellent tumor-to-normal tissue ratios
same,ex-vivo tissue biodistribution,[5],highest fluorescence intensities were observed in FR-positive tumors and kidneys
same,tumor-to-normal tissue ratios,[5],excellent tumor-to-normal tissue ratios
same,whole body imaging: accumulation,[5],accumulated mainly in the FR-positive SKOV3 tumor xenografts
same,accumulation (tissue biodistribution),[6],accumulated mainly in the ovary with FR-positive SKOV3 orthotopic tumor
same,tumor-to-normal tissue ratios,[6],excellent tumor-to-normal tissue ratios
same,ex-vivo tissue biodistribution,[7],highest fluorescence intensities were observed in FR-positive tumors and kidneys
same,tumor-to-normal tissue ratios,[7],excellent tumor-to-normal tissue ratios
same,whole body imaging: accumulation,[7],accumulated mainly in the FR-positive MDA-MB 231 orthotopic tumors
same,accumulation,[8],mainly accumulated in the breast cancer cells metastasized to lung
same,tumor-to-normal tissue ratios,[9],excellent tumor-to-normal tissue ratios
same,whole body imaging: accumulation,[9],"accumulated mainly in the FR-positive L1210A tumors metastasize to the liver, lung and spleen"
same,tumor-to-normal tissue ratios,FR-positive M109 tumors,excellent tumor-to-normal tissue ratios
same,whole body imaging: accumulation,FR-positive M109 tumors,"accumulated mainly in the FR-positive M109 tumors metastasize to the liver, lung and spleen"

# From patent publication US12133900B2, “Synthesis and composition of amino acid linking groups conjugated to compounds used for the targeted imaging of tumors” (Purdue Research Foundation, priority 2013, dated 2024)
